Test results as given in patent publication US20230172203A1, “PLANT METABOLISM PROMOTING COMPOSITIONS AND METHODS OF USE” (Panoptic Ag Solutions LLC, priority 2021, published 2023).

How the values were obtained:
Format in all cases: in vivo
[1] = system: CalWonder variety pepper plant seedlings; experiment: 2021 Greenhouse Bell Pepper Trial
Excerpt: The base formulation used in greenhouse trials was an aqueous solution of L-theanine (20% by weight). The base formulation was further diluted with water as detailed for each trial. CalWonder variety pepper plant seedlings (n=4/treatment) were planted in commercial potting soil and then were transplanted to 3-gallon pots. L-theanine treatment was applied at the equivalent of 1 pint in 100 gallons of water (125 ppm) and sprayed till runoff. Two treatment applications were made to the plants approximately 14 days apart.

[2] = system: Whale variety spinach plant seedlings; experiment: 2021 Greenhouse Spinach Trial
Excerpt: The base formulation used in greenhouse trials was an aqueous solution of L-theanine (20% by weight). The base formulation was further diluted with water as detailed for each trial. Whale variety spinach plant seedlings (n=6/treatment) were planted in commercial potting soil and then were transplanted to 3-gallon pots. L-theanine treatment was applied at the equivalent of 1 pint in 100 gallons of water (125 ppm) and sprayed till runoff. Two treatment applications were made to the plants approximately 14 days apart.

Mature cherry trees = experiment: 2022 Replicated California Cherry Trial
Experimental: Mature cherry trees (n=6) were treated with a 10% aqueous L-theanine solution at 1 pint per acre with application timings at Early Bloom, Petal Fall, and Early Fruit set. The trial was maintained at grower standard fertilizer and pest management throughout the course of the trial.

[3] = foliar spray 125 ppm till runoff, two applications ~14 days apart
[4] = vs untreated check, 125 ppm foliar, two applications

In the case of CCNC(=O)CC[C@H](N)C(=O)O [L-theanine], the “Basal Diameter” value [1, 3] is reported as 5.55 a mm, the “Fruit (count)” value [1, 3] is reported as 5.5 a count and the “Plant Height” value [1, 3] is reported as 26 a in. For the same compound, the “improvement in basal diameter” value [1, 4] was 1.82 mm, the “improvement in basal diameter, percent” value [1, 4] was 48.8% and the “improvement in fruit count” value [1, 4] was 3.0. For the same compound, the “improvement in fruit count, percent” value [1, 4] was 120%, the “Basal Diameter” value [2, 3] was 3.07 a mm and the “Leaf (count)” value [2, 3] was 8.66 a count. For the same compound, the “Plant Height” value [2, 3] was 8.67 a in, the “increase in leaf count” value [2, 4] was 1 and the “increase in leaf count, percent” value [2, 4] was 13.1%. The “increase in plant height” value [2, 4] was 1.67 in, the “increase in plant height, percent” value [2, 4] was 23.9% and the Yield (Mature cherry trees; 10% aqueous solution at 1 pint per acre, Early Bloom, Petal Fall, Early Fruit set) was 70.3 a Boxes/Acre. The increase in yield (Mature cherry trees; over the untreated check) was 12.8 boxes/acre and the “increase in yield, percent” value (Mature cherry trees; over the untreated check) was 22.3%.
